From PMC4865820, “Branched Peptide, B2088, Disrupts the Supramolecular Organization of Lipopolysaccharides and Sensitizes the Gram-negative Bacteria” (Scientific Reports, 2016)
Positions of bridges follow the written chain, without caps; N, C: chain ends. Non-standard residues stand in square brackets, D forms with d. Residues, ends and D or L forms follow the SMILES beside them. Chains are numbered I, II in the order given. Nva = CCC[C@H](N)C(=O)O

How the values were obtained:
[1] = tested on: LPS (E. coli serotype 055:B5); experiment: BODIPY TR cadaverine (BC) displacement assay with LPS; assay type: binding; conditions: no unit in table; ED50 values in μM; 5 mM HEPES pH 7.4; duplicates; read-out: BC50 (LPS binding)
Excerpt: To investigate the interaction of B2088 with LPS, we performed the BODIPY TR cadaverine (BC) displacement assay reported by Wood et al.[22]. The probe binds to the lipid A part of the LPS with moderate affinity and can be displaced by putative LPS-binding molecules. The method was used to probe the affinity of polycationic molecules and LPS binding proteins. First, we determined the affinity of polymyxin B (PMB), a lipopeptide cyclic antibiotic which has a high affinity for LPS. […] Figure 1a,b show the concentration-dependent displacement of LPS/lipid A-bound BC upon addition of B2088. […] To confirm the importance of branching, we determined the BC50 for a linear retrodimer having the amino acid sequence, […] (Fig. 1d). The determined value was 2-fold higher (3.9 ± 0.1 μM) than that of B2088, confirming a weaker affinity of the linear peptide.
The BC displacement assay was used to determine the ability of each peptide to bind to LPS. The florescent probe, BODIPY TR cadaverine (BC) was purchased from Molecular Probes/ Invitrogen (USA). A stock solution containing 1 mg/ml of LPS (E. coli serotype 055:B5) was prepared in dimethyl sulfoxide (DMSO) and another stock solution containing 1 mg/ml of BC dye was prepared in 5 mM HEPES buffer (pH 7.4). The optimum saturation concentration of BC:LPS ratio was standardized following the protocol provided by Wood et al. (22). From the BC stock, 240 μl was mixed with 500 μl from the LPS stock solution in 5 mM HEPES buffer (pH 7.4) to prepare 20 ml of BC:LPS mixture. Two-fold serial dilutions of each peptide in 5 mM HEPES buffer (pH 7.4) was prepared from their 1 mg/ml stock solutions to obtain a final range of 0.02–25.6 μM. The BC:LPS mixture was added to 100 μl of each peptide congener in a 1:1 ratio in each well of a 96-well black Costar™ polystyrene microtitre plate (Corning Incorporated, NY, USA). The maximum fluorescence intensity (Fmax) was determined using a mixture containing 100 μl PMB (50 μg/ml) and 100 μl BC:LPS solution, as PMB is considered the ‘gold standard’ for LPS-sequestering agents. The minimum fluorescence intensity (F0) was measured using 200 μl of BC:LPS mixture to determine the background noise for this experiment. Fluorescence measurements for each peptide (F) were determined using a microplate reader (Model: TECAN Infinite 200, Austria) with excitation and emission wavelengths set at 580 nm and 620 nm respectively. The percentage of BC displacement was then calculated using the formula: […]
The experiments were performed in duplicates and the effective concentration required for 50% displacement of BC dye (ED50) from LPS with respect to PMB was determined by curve fitting using Graphpad Prism (CA, USA). A higher ED50 value for the peptide indicates a lower affinity for LPS.

P. aeruginosa ATCC 27853 [2] = experiment: microbe, parasite or virus in culture; assay type: cell-based; conditions: ATCC 27853, 24 h
Experimental: (§1) MIC of each peptide was determined using the microdilution method in a 96 well microtitre plates (SPL Life Sciences Co., Ltd, Korea). Two-fold serial dilutions of each peptide in Mueller-Hinton Broth (MHB) was prepared from a 1 mg/ml stock solution of the peptide in the same broth, to obtain a final concentration in the range of 0.0976–50 μg/ml in each well. Bacterial suspensions (P. aeruginosa ATCC 27853, P. aeruginosa 4877, P. aeruginosa 23155, K. pneumoniae ATCC 10031 and K. pneumoniae 4299) were prepared by suspending the overnight cultured bacteria in saline and adjusting the inoculum to ~10^8 colony forming units (CFU) per ml. A further 150-fold dilution was then prepared in MHB to achieve a final cell density of 10^5–10^6 CFU/ml. In each well, 100 μl of inoculum was mixed with the equal volume of peptides at their 2× concentration. Positive and negative controls contained 200 μl of inoculum (without any peptide) and broth alone (no peptide/inoculum) respectively. Another negative control in which MHB containing 200 μl of peptide alone in its highest concentration tested (50 μg/ml) was also included to ensure that the optical density measured in the test wells was not due to turbidity of the peptides in solution. The 96 well polystyrene plates were then incubated at 37 °C for 24 h and the optical density at 600 nm (OD600) was measured every 30 min continuously using a TECAN microplate reader (TECAN Infinite 200, Austria). All the experiments were performed in two independent duplicates and the MIC was determined as the lowest peptide concentration in which no visible growth was observed.

P. aeruginosa ATCC 27853 [3] = assay type: cell-based; conditions: ATCC 27853; for Fractional inhibitory concentration of peptide/PMB, combination with Genta: first number in parenthesis; for Fractional inhibitory concentration of antibiotic, Genta combination: second number in parenthesis
Experimental: (§2) The synergism between peptides with conventional antibiotics was evaluated using checkerboard assays. For a comparison polymyxin B (PMB) was also tested against each antibiotic. From their stock solutions, two-fold dilutions of each antibiotic and peptide to 1× MIC were prepared in MHB. 50 μl of each peptide concentration was added into the wells of a 96-well polystyrene plates (SPL Life Sciences Co. Ltd, Korea) in a horizontal orientation and the same volume of each antibiotic concentration were then added in a vertical orientation. Bacterial suspensions were prepared in MHB to yield final cell density of ~10^6 CFU/ml and 100 μl of bacterial suspension was mixed with each peptide-antibiotic combinations. This procedure was repeated for wells containing 200 μl of peptide alone and 200 μl of antibiotic alone in various concentrations. The positive and negative controls contained 200 μl of inoculum and MHB alone respectively. The plates were incubated at 37 °C for 24 hours and the optical density at 600 nm (OD600) was monitored as before. Fractional inhibitory concentration index (FICI) for all antibiotic- peptide combinations was calculated through the summation of (MIC of peptide in the combination/ MIC of peptide alone) and (MIC of antibiotics in combination/MIC of antibiotic alone). The experiments were performed in two independent duplicates and the combinations that gave the lowest FICI values was reported.

P. aeruginosa DR4877/07 = assay type: cell-based; conditions: for Fractional inhibitory concentration of peptide/PMB, combination with Chloarm / Fractional inhibitory concentration of peptide/PMB, combination with Erythro / Fractional inhibitory concentration of peptide/PMB, combination with Levo / Fractional inhibitory concentration of peptide/PMB, combination with Tobra: first number in parenthesis; for Fractional inhibitory concentration of antibiotic, Chloarm combination / Fractional inhibitory concentration of antibiotic, Erythro combination / Fractional inhibitory concentration of antibiotic, Levo combination / Fractional inhibitory concentration of antibiotic, Tobra combination: second number in parenthesis
Experimental: as §2

P. aeruginosa ATCC 9027 = experiment: Outer membrane permeability assay (NPN); assay type: cell-based; conditions: no unit in table; Fig. S5 axis [Peptide], μM; 10 μM NPN, 5 mM HEPES pH 7.4, ex 355/em 405 nm; average of two titrations; read-out: PC50 (peptide concentration for half-maximal NPN intensity, OM permeability)
Experimental: The ability of each peptide to permeabilize the OM of Gram-negative organisms was determined using the hydrophobic fluorescent probe 1-N-phenylnaphthylamine (NPN) as previously reported. P. aeruginosa ATCC 9027 cells from an overnight MHB culture were harvested after centrifuging at 3000 rpm for 10 minutes. The pellet was washed twice, suspended in 5 mM HEPES (N- 2-hydroxyethylpiperazine-N’-2 ethanesulfonic acid) buffer (pH 7.4) and adjusted to an OD600 of 0.200. A suspension containing 600 μl of bacteria cells and 1 μl of a concentrated stock solution of NPN was mixed into a 10 mm stirred quartz cuvette so that the final concentration of the probe remained 10 μM. Aliquots containing 1 μl of each peptide in various concentrations (100, 50, 25, 15, 10, 5, 2.5 and 1 μg/ml) were added upon NPN dye stabilization. The fluorescence intensity was monitored using a Quanta Master spectrophotometer with a constant slit width of 0.5 nm, excitation and emission wavelengths set at 355 nm and 405 nm respectively. The peptide concentration required for half-maximal intensity (PC50) was determined by sigmoidal curve fitting using Graphpad Prism software. The experimental data is average of two independent titration experiments.

K. pneumonia 4299 = experiment: microbe, parasite or virus in culture; assay type: cell-based, K. pneumoniae; conditions: 24 h
Experimental: as §1

P. aeruginosa 23155 = assay type: cell-based; conditions: 23155, 24 h
Experimental: as §1

K. pneumoniae ATCC10031 = assay type: cell-based; conditions: ATCC10031, 24 h
Experimental: as §1

Compound	EC50 [1]	Minimum Inhibitory Concentration against P. aeruginosa ATCC 27853 (P. aeruginosa ATCC 27853 [2])	Fractional inhibitory concentration of peptide/PMB, combination with Genta (P. aeruginosa ATCC 27853 [3])	Fractional inhibitory concentration of antibiotic, Genta combination (P. aeruginosa ATCC 27853 [3])	Fractional inhibitory concentration of peptide/PMB, combination with Chloarm (P. aeruginosa DR4877/07)	Fractional inhibitory concentration of peptide/PMB, combination with Erythro (P. aeruginosa DR4877/07)	Fractional inhibitory concentration of peptide/PMB, combination with Levo (P. aeruginosa DR4877/07)	Fractional inhibitory concentration of peptide/PMB, combination with Tobra (P. aeruginosa DR4877/07)	Fractional inhibitory concentration of antibiotic, Chloarm combination (P. aeruginosa DR4877/07)	Fractional inhibitory concentration of antibiotic, Erythro combination (P. aeruginosa DR4877/07)	Fractional inhibitory concentration of antibiotic, Levo combination (P. aeruginosa DR4877/07)	Fractional inhibitory concentration of antibiotic, Tobra combination (P. aeruginosa DR4877/07)	EC50 (P. aeruginosa ATCC 9027)	Minimum Inhibitory Concentration against K. pneumonia 4299 (K. pneumonia 4299)	Minimum Inhibitory Concentration against P. aeruginosa 23155 (P. aeruginosa 23155)	Minimum Inhibitory Concentration against K. pneumoniae ATCC10031 (K. pneumoniae ATCC10031)
CC[C@H](C)[C@H](NC(=O)[C@H](CCCCN)NC(=O)[C@H](CCCNC(=N)N)NC(=O)CNC(=O)[C@@H](N)CCCNC(=N)N)C(=O)N[C@H](C(=O)N[C@@H](CCCNC(=N)N)C(=O)N[C@@H](CCCNC(=N)N)C(=O)NCCCC[C@H](NC(=O)[C@H](CCCNC(=N)N)NC(=O)[C@H](CCCNC(=N)N)NC(=O)[C@@H](NC(=O)[C@@H](NC(=O)[C@H](CCCCN)NC(=O)[C@H](CCCNC(=N)N)NC(=O)CNC(=O)[C@@H](N)CCCNC(=N)N)[C@@H](C)CC)[C@@H](C)CC)C(=O)N[C@@H](CCCCN)C(=O)O)[C@@H](C)CC (I: H-RGRKIIRRKK-OH / II: H-RGRKIIRR; amide I:9-II:C; N-terminus and C-terminus assumed)	1.44 ± 0.02 µM	2.7 µM	0.5	0.01	0.5	(0.5,0.5)	0.5	0.5	0.25	(0.5,0.5)	0.13	0.06	17 ± 0.2 µM	5.3 µM	5.3 µM	2.7 µM
CCC[C@H](NC(=O)[C@H](CCCCN)NC(=O)[C@H](CCCNC(=N)N)NC(=O)CNC(=O)[C@@H](N)CCCNC(=N)N)C(=O)N[C@@H](CCC)C(=O)N[C@@H](CCCNC(=N)N)C(=O)N[C@@H](CCCNC(=N)N)C(=O)NCCCC[C@H](NC(=O)[C@H](CCCNC(=N)N)NC(=O)[C@H](CCCNC(=N)N)NC(=O)[C@H](CCC)NC(=O)[C@H](CCC)NC(=O)[C@H](CCCCN)NC(=O)[C@H](CCCNC(=N)N)NC(=O)CNC(=O)[C@@H](N)CCCNC(=N)N)C(=O)N[C@@H](CCCCN)C(=O)O [(RGRKNvalNvalRR)2KK] (I: H-RGRK[Nva][Nva]RRKK-OH / II: H-RGRK[Nva][Nva]RR; amide I:9-II:C; N-terminus and C-terminus assumed)	1.45 ± 0.01 µM	10.9 µM		0.13	(0.25,0.25)	(0.5,0.5)	0.5	0.25	(0.25,0.25)	(0.5,0.5)	0.25	0.13	14.9 ± 1.2 µM	21.8 µM	5.5 µM	10.9 µM
N=C(N)NCCC[C@H](NC(=O)CNC(=O)[C@@H](N)CCCNC(=N)N)C(=O)N[C@@H](CCCCN)C(=O)N[C@@H](Cc1ccccc1)C(=O)N[C@@H](Cc1ccccc1)C(=O)N[C@@H](CCCNC(=N)N)C(=O)N[C@@H](CCCNC(=N)N)C(=O)NCCCC[C@H](NC(=O)[C@H](CCCNC(=N)N)NC(=O)[C@H](CCCNC(=N)N)NC(=O)[C@H](Cc1ccccc1)NC(=O)[C@H](Cc1ccccc1)NC(=O)[C@H](CCCCN)NC(=O)[C@H](CCCNC(=N)N)NC(=O)CNC(=O)[C@@H](N)CCCNC(=N)N)C(=O)N[C@@H](CCCCN)C(=O)O (I: H-RGRKFFRRKK-OH / II: H-RGRKFFRR; amide I:9-II:C; N-terminus and C-terminus assumed)	0.93 ± 0.01 µM	5.0 µM	(0.25,0.25)	(0.25,0.25)	0.25	(0.5,0.5)	(0.5,0.5)	0.25	0.13	(0.5,0.5)	(0.5,0.5)	0.06	10 ± 0.3 µM	10.1 µM	5.0 µM	5.0 µM
